Laboratory results reported in PubChem BioAssay AID1259407 (Chemical Carcinogenesis Research Information System (CCRIS), 2018).
Active and inactive are the calls of the source. How the calls were made is not given here.

Tested on: CCRIS mutagenicity, Ames/micronucleus/aberration tests
Experiment: CCRIS mutagenicity studies
[1] = Test System: AMES SALMONELLA TYPHIMURIUM, Strain/Indicator: TA98, Metabolic Activation: NONE, Method: STANDARD PLATE
[2] = Test System: AMES SALMONELLA TYPHIMURIUM, Strain/Indicator: TA100, Metabolic Activation: NONE, Method: STANDARD PLATE

O=C1CCC(=O)N1c1ccc(Cl)c(Cl)c1Cl
mutagenic call [1]: inactive; negative | mutagenic call (Test System: AMES SALMONELLA TYPHIMURIUM, Strain/Indicator: TA98, Metabolic Activation: RAT, LIVER, S-9, AROCLOR 1254, Method: STANDARD PLATE): inactive; negative | mutagenic call [2]: inactive; negative | mutagenic call (Test System: AMES SALMONELLA TYPHIMURIUM, Strain/Indicator: TA100, Metabolic Activation: RAT, LIVER, S-9, AROCLOR 1254, Method: STANDARD PLATE): inactive; negative

c1ccc2c(c1)Oc1ccccc1S2
mutagenic call (Test System: AMES SALMONELLA TYPHIMURIUM, Strain/Indicator: TA97, Metabolic Activation: HAMSTER, LIVER, S-9, AROCLOR 1254 (10 OR 30%), Method: PREINCUBATION): inactive; negative | mutagenic call (Test System: AMES SALMONELLA TYPHIMURIUM, Strain/Indicator: TA97, Metabolic Activation: NONE, Method: PREINCUBATION): inactive; negative | mutagenic call (Test System: AMES SALMONELLA TYPHIMURIUM, Strain/Indicator: TA97, Metabolic Activation: RAT, LIVER, S-9, AROCLOR 1254 (10 OR 30%), Method: PREINCUBATION): inactive; negative | mutagenic call (Test System: AMES SALMONELLA TYPHIMURIUM, Strain/Indicator: TA98, Metabolic Activation: HAMSTER, LIVER, S-9, AROCLOR 1254 (10 OR 30%), Method: PREINCUBATION): inactive; negative | mutagenic call (Test System: AMES SALMONELLA TYPHIMURIUM, Strain/Indicator: TA98, Metabolic Activation: NONE, Method: PREINCUBATION): inactive; negative | mutagenic call (Test System: AMES SALMONELLA TYPHIMURIUM, Strain/Indicator: TA98, Metabolic Activation: RAT, LIVER, S-9, AROCLOR 1254 (10 OR 30%), Method: PREINCUBATION): inactive; negative | mutagenic call (Test System: AMES SALMONELLA TYPHIMURIUM, Strain/Indicator: TA100, Metabolic Activation: HAMSTER, LIVER, S-9, AROCLOR 1254 (10 OR 30%), Method: PREINCUBATION): inactive; negative | mutagenic call (Test System: AMES SALMONELLA TYPHIMURIUM, Strain/Indicator: TA100, Metabolic Activation: NONE, Method: PREINCUBATION): inactive; negative | mutagenic call (Test System: AMES SALMONELLA TYPHIMURIUM, Strain/Indicator: TA100, Metabolic Activation: RAT, LIVER, S-9, AROCLOR 1254 (10 OR 30%), Method: PREINCUBATION): inactive; negative | mutagenic call (Test System: AMES SALMONELLA TYPHIMURIUM, Strain/Indicator: TA1535, Metabolic Activation: HAMSTER, LIVER, S-9, AROCLOR 1254 (10 OR 30%), Method: PREINCUBATION): inactive; negative | mutagenic call (Test System: AMES SALMONELLA TYPHIMURIUM, Strain/Indicator: TA1535, Metabolic Activation: NONE, Method: PREINCUBATION): inactive; negative | mutagenic call (Test System: AMES SALMONELLA TYPHIMURIUM, Strain/Indicator: TA1535, Metabolic Activation: RAT, LIVER, S-9, AROCLOR 1254 (10 OR 30%), Method: PREINCUBATION): inactive; negative

CCc1cc(-c2ccccc2)cc(CC)c1N
mutagenic call [1]: inactive; negative | mutagenic call (Test System: AMES SALMONELLA TYPHIMURIUM, Strain/Indicator: TA98, Metabolic Activation: RAT LIVER S-9, AROCLOR, Method: STANDARD PLATE): inactive; negative | mutagenic call [2]: inactive; negative | mutagenic call (Test System: AMES SALMONELLA TYPHIMURIUM, Strain/Indicator: TA100, Metabolic Activation: RAT LIVER S-9, AROCLOR, Method: STANDARD PLATE): inactive; negative

BrCc1c2ccccc2cc2ccccc12
mutagenic call [1]: active; positive | mutagenic call [2]: active; positive

CS(=O)CCCCN=C=S (centres undefined)
mutagenic call (End Point: IN VITRO MICRONUCLEUS, Test System: HUMAN T-LYMPHOCYTES, Metabolic Activation: NONE): inactive; negative

c1ccc2c(c1)-c1cccc3c1c-2cc1c2ccccc2ccc31
mutagenic call (Test System: HUMAN H1A1V2 CELLS, Strain/Indicator: TK LOCUS, Metabolic Activation: NONE, Method: SUSPENSION/PLATE): inactive; negative
